According to patent publication US10507218B2, “Treatment of cardiovascular disease by using gallium compounds to bind calcified lesions” (LIPIDRISK, LLC, priority 2018, dated 2019):

What was measured:
[1] = animal studies; cited from earlier work
[2] = Treatment of plantar fasciitis by topical gallium nitrate solution (single patient); type: in vivo, human
Description: The patient was having continuous severe pain from the plantar fasciitis for over six months after treatments with injected cortisone, special braces and hydrotherapy none of which gave relief.
Patient was treated with 5 ml's of 14% gallium nitrate solution applied to the bottom of the affected foot for 30 minutes every other day for three treatments. After each treatment the remaining solution was washed off and the exact amount of absorbed gallium nitrate was not measured. […] The plantar fasciitis has not returned for 10 years. The pain elimination from reduced inflammation is an indicator that the gallium ions bonded to the calcified structures at an inflammation site.

[3] = set-up: dose or concentration left out as unconfirmed; details: of gallium nitrate over 5-7 days; cited from earlier work
[4] = Treatment of rheumatoid arthritis of the wrist by topical gallium nitrate solution (single patient); type: in vivo, human; details: about 100 mg
Description: Patient had persistent rheumatoid arthritis of the wrist for over six months and was treated with a single dose of ¾ ml of 14% gallium nitrate solution, about 100 mg, as a topical application for one hour. […] Again, the pain elimination from reduced inflammation is an indicator that the gallium ions bonded to the calcified structures at an inflammation site.

SMILES: O=[N+]([O-])[O-].O=[N+]([O-])[O-].O=[N+]([O-])[O-].[Ga+3] [gallium nitrate]
- carbonyl oxidation and protein nitration [1]: reduction of carbonyl oxidation and protein nitration
- pain relief after each treatment ([2]; 5 ml of 14% gallium nitrate solution on bottom of affected foot, 30 minutes, every other day, three treatments): complete relief of pain for several hours after each treatment
- time without return of plantar fasciitis ([2]; after three topical treatments): ≥ 10 years
- pain outcome after the third treatment ([2]; one week after third topical treatment): the pain disappeared completely one week later
- reduction of calcium excretion [3]: 70+18%
- immediate pain relief ([4]; single topical dose of ¾ ml of 14% gallium nitrate solution, one hour): Some pain relief was noticed immediately
- arthritic pain after two months ([4]; single topical dose): the arthritic pain was not noticeable
- duration without arthritic pain in the wrist ([4]; single topical dose): has not experienced arthritic pain in the wrist for two years
